According to ChEMBL document CHEMBL4665665, “4-Aryl Pyrrolidines as Novel Orally Efficacious Antimalarial Agents. Part 2: 2-Aryl-N-(4-arylpyrrolidin-3-yl)acetamides” (ACS Med Chem Lett, 2019):
pIC50: −log10 of the molar value.

Tested on: Plasmodium falciparum
Test: Antimalarial activity against CQ-sensitive Plasmodium falciparum 3D7 incubated for 72 hrs by SYBR Green-1 dye based fluorescence assay
Assay type: functional, organism-based
Conditions: not given

SMILES	pIC50
CN(C)c1ccc(CC(=O)N[C@H]2CNC[C@@H]2c2ccc(C(F)(F)F)cc2)cc1 (racemic)	7.02
CN(C)c1ccc(CC(=O)N[C@H]2CNC[C@@H]2c2ccc(C(F)(F)F)cc2)cc1	6.07

Same assay, conditions: Plasmodium falciparum, 3D7, 72 h

pIC50	SMILES
7.20	CN(C)c1ccc(CC(=O)N[C@@H]2CNC[C@H]2c2ccc(C(F)(F)C(F)(F)F)nc2)cc1
7.22	CN(C)c1ccc(CC(=O)N[C@@H]2CNC[C@H]2c2ccc(C(C)(F)F)nc2)cc1
6.82	CN(C)c1ccc(CC(=O)N[C@@H]2CNC[C@H]2c2cc3ccccc3s2)cc1
6.85	CN(C)c1ccc(CC(=O)N[C@@H]2CNC[C@H]2c2cc3ccccc3o2)cc1
5.34	CN(C)c1ccc(CC(=O)N[C@@H]2CNC[C@H]2c2ccc(-c3ccccc3)cc2)cc1
5.80	Cc1ccc(CC(=O)N[C@H]2CNC[C@@H]2c2ccc(C(F)(F)F)cc2)nc1 (racemic)
6.64	CN(C)c1cccc(CC(=O)N[C@H]2CNC[C@@H]2c2ccc(C(F)(F)F)cc2)c1 (racemic)
6.92	CN(C)c1ccc(CC(=O)N[C@@H]2CNC[C@H]2c2ccc(C(F)(F)F)c(Cl)c2)cc1
6.92	CN(C)c1ccc(CC(=O)N[C@@H]2CNC[C@H]2c2ccc(C(C)(C)C)cc2)cc1
7.23	CN(C)c1ccc(CC(=O)N[C@@H]2CNC[C@H]2c2cccc(S(F)(F)(F)(F)F)c2)cc1
6.12	COc1cccc(CC(=O)N[C@H]2CNC[C@@H]2c2ccc(C(F)(F)F)cc2)c1 (racemic)
6.70	CN(C)c1ccc(CC(=O)N(C)[C@@H]2CNC[C@H]2c2ccc(C(F)(F)F)cc2)cc1
5.70	O=C(Cc1ccccc1)N[C@H]1CNC[C@@H]1c1ccc(C(F)(F)F)cc1 (racemic)
6.85	CN(C)c1ccc(CC(=O)N[C@@H]2CNC[C@H]2c2ccc(Br)cc2)cc1
6.60	CN(C)c1ccc(CNC(=O)[C@H]2CNC[C@@H]2c2ccc(C(F)(F)F)nc2)cc1 (racemic)
5.44	COc1ccc(CC(=O)N[C@H]2CNC[C@@H]2c2ccc(C(F)(F)F)cc2)nc1 (racemic)
5.54	Nc1ccc(CC(=O)N[C@H]2CNC[C@@H]2c2ccc(C(F)(F)F)cc2)cc1 (racemic)
6.57	CN(C)c1ccc(CC(=O)N[C@@H]2CNC[C@H]2c2cc3cc(F)ccc3o2)cc1
6.00	CN(C)c1ccc(CC(=O)N[C@@H]2CNC[C@H]2c2cc3cc(Cl)ccc3o2)cc1
5.43	Cc1ccc(CC(=O)N[C@H]2CNC[C@@H]2c2ccc(C(F)(F)F)cc2)cn1 (racemic)
6.22	CC(C)c1ccc(CC(=O)N[C@H]2CNC[C@@H]2c2ccc(C(F)(F)F)cc2)cc1 (racemic)
5.66	COc1ccc(CC(=O)N[C@H]2CNC[C@@H]2c2ccc(C(F)(F)F)cc2)cn1 (racemic)
6.68	CN(C)c1ccc(CC(=O)N[C@H]2CNC[C@@H]2c2ccc(C(F)(F)F)nc2)cc1 (racemic)
5.85	CN(C)c1ccc(CCC(=O)N[C@H]2CNC[C@@H]2c2ccc(C(F)(F)F)cc2)cc1 (racemic)
6.64	Cc1ccc(CC(=O)N[C@H]2CNC[C@@H]2c2ccc(C(F)(F)F)cc2)cc1 (racemic)
6.43	Cc1cccc(CC(=O)N[C@H]2CNC[C@@H]2c2ccc(C(F)(F)F)cc2)c1 (racemic)
6.72	CN(C)c1ccc(CNC(=O)[C@H]2CNC[C@@H]2c2ccc(C(F)(F)F)cc2)cc1 (racemic)
6.85	CN(C)c1ccc(CC(=O)N[C@@H]2CNC[C@H]2c2ccc(C(F)(F)C(F)(F)F)cc2)cc1
6.46	COc1ccc(CC(=O)N[C@H]2CNC[C@@H]2c2ccc(C(F)(F)F)cc2)cc1 (racemic)

SMILES	pIC50
CN(C)c1ccc(CC(=O)N[C@H]2CNC[C@@H]2c2ccc(S(F)(F)(F)(F)F)cc2)cc1	5.92
CN1C[C@@H](N(C)C(=O)Cc2ccc(N(C)C)cc2)[C@H](c2ccc(C(F)(F)F)nc2)C1 (racemic)	5.85
CN(C)c1ccc(CC(=O)N[C@H]2CNC[C@@H]2c2ccc(C(C)(F)F)cc2)cc1	6.36
C[C@@H]1CC[C@H]2[C@@H](C)C(=O)O[C@@H]3O[C@@]4(C)CC[C@@H]1[C@]32OO4 [ARTEMISININ]	7.48
